The source of these data is US10597377B2, “Somatostatin modulators and uses thereof” (priority 2016, dated 2020).

Chain of human SSTR2 (P30874 whole entry): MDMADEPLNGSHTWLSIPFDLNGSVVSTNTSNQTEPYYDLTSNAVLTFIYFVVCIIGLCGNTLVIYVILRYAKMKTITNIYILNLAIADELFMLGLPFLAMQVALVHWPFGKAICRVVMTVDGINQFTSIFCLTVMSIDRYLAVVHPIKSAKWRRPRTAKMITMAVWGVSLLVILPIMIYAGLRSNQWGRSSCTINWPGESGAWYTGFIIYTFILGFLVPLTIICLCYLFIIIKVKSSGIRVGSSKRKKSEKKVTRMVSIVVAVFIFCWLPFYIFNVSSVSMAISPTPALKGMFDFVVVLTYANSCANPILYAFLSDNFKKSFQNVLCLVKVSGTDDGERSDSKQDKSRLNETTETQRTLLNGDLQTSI

This assay concerns the target human SSTR2 (Homo sapiens (Human), UniProt P30874). In words: Human SSTR2 intracellular cAMP functional assay for agonists (CHO-K1 cells, HTRF). The assay is classed as cell-based. The note with it: inhibition of cAMP activities via human SST2R; CHO-K1 cells stably expressing human SSTR2. Here is the method:
Functional Assay for SSTR2 Agonists
General overview: All five SSTR subtypes are Gi coupled G-protein coupled receptors (GPCRs) that lead to decreases in intracellular cyclic AMP (cAMP) when activated by an agonist. […] Human SSTR2 intracellular cAMP assay is described below. The human SSTR1, 3, 4 and 5 assays follow the same protocol of SSTR2.
The cells are cultured at 37° C., 5% CO2 and 95% humidity. […] The cells are incubated for 20 minutes at 37° C. […] The cells are treated with 50 μL of lysis buffer (HRTF cAMP kit, Cisbio). […] The time-resolved fluorescent signal is read with a Tecan M1000Pro multiplate reader. The intracellular cAMP concentrations are calculated by regression to a standard curve and are plotted vs. the concentration of the compounds of the invention and the EC50 of the compounds are calculated using standard methods. All data manipluations are in GraphPad Prism v6.
(In general: Time-resolved FRET reads energy transfer from a long-lived donor to a nearby acceptor.)
For `Cc1cc(F)cc(-c2nnc3cc(Cl)c(-c4cc(F)cc(C(N)=O)c4)cc3c2N2CC[C@@H](N)[C@H](O)C2)c1` (relative stereo) [1-26, 3-{4-[trans-4-amino-3-hydroxypiperidin-1-yl]-7-chloro-3-(3-fluoro-5-methylphenyl)cinnolin-6-yl}-5-fluorobenzamide], the EC50 (in general, the concentration that produces a half-maximal response) was less than 10 nM.

For `N#Cc1cncc(-c2ccc3ncc(-c4cc(F)cc(F)c4)c(N4CC[C@H]5NCCO[C@@H]5C4)c3c2)c1N` (racemic) [2-244, 5-{4-[trans-octahydro-1H-pyrido[3,4-b]morpholin-6-yl]-3-(3,5-difluorophenyl)quinolin-6-yl}-4-aminopyridine-3-carbonitrile], the EC50 is less than 10 nM. The same measure for `COC(=O)Nc1ncc(F)cc1-c1ccc2ncc(-c3cc(C)cc(F)c3)c(N3CCC(N)CC3)c2c1` [2-182, methyl N-{3-[4-(4-aminopiperidin-1-yl)-3-(3-fluoro-5-methylphenyl)quinolin-6-yl]-5-fluoropyridin-2-yl}carbamate]: less than 10 nM; for `COC(=O)Nc1c(F)cncc1-c1ccc2ncc(-c3cc(C)cc(F)c3)c(N3CCC(N)CC3)c2c1` [2-171, methyl N-{3-[4-(4-aminopiperidin-1-yl)-3-(3-fluoro-5-methylphenyl)quinolin-6-yl]-5-fluoropyridin-4-yl}carbamate]: less than 10 nM; for `Nc1ncccc1-c1ccc2ncc(-c3cc(F)cc(F)c3)c(N3CC[C@H]4NCCO[C@@H]4C3)c2c1` (racemic) [2-246]: less than 10 nM. The same measure for `Cc1cc(F)cc(-c2cnc3ccc(-c4cc(F)cc(C#N)c4O)nc3c2N2CCC(N)CC2)c1` [3-2, 3-[8-(4-aminopiperidin-1-yl)-7-(3-fluoro-5-methylphenyl)-1,5-naphthyridin-2-yl]-5-fluoro-2-hydroxybenzonitrile]: less than 10 nM; for `C#Cc1ccnc(-c2ccc3ncc(-c4cc(F)cc(F)c4)c(N4CC[C@H]5NCCO[C@@H]5C4)c3c2)c1N` [2-277, 2-{4-[trans-octahydro-1H-pyrido[3,4-b]morpholin-6-yl]-3-(3,5-difluorophenyl)quinolin-6-yl]-4-ethynylpyridin-3-amine]: less than 10 nM.
